# Test results from article PMC6879718, “Mycobacterial OtsA Structures Unveil Substrate Preference Mechanism and Allosteric Regulation by 2-Oxoglutarate and 2-Phosphoglycerate” (mBio, 2019).
# Experiments:
# MtrOtsA [1] = target: T1, MtrOtsA (Mycolicibacterium thermoresistibile, UniProt G7CGT2); assay: biochemical
# T1 sequence (G7CGT2 1-486): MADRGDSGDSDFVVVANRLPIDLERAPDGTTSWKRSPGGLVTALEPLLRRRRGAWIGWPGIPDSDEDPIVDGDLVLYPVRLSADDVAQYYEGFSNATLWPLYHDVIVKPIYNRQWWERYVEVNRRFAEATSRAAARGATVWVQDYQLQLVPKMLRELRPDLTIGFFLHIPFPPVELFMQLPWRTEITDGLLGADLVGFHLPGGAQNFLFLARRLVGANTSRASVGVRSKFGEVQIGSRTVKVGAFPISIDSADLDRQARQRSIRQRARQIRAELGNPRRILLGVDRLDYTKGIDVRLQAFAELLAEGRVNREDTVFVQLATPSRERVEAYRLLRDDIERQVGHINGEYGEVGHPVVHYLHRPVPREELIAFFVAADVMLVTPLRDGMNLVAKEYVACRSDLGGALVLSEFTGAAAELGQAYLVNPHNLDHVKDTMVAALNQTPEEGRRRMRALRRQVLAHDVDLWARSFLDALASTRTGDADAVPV
# [2] = target: T2, M. thermoresistibile OtsA L319I (Mycolicibacterium thermoresistibile, UniProt G7CGT2, L319I); assay: OtsA kinetic parameters, continuous colorimetric coupled assay (L319I); format: biochemical, Mycobacterium thermoresistibile
# T2 sequence (G7CGT2 1-486 L319I): T1 sequence (G7CGT2 1-486)
# [3] = target: T3, M. thermoresistibile OtsA L319I, V363F, E367L (Mycolicibacterium thermoresistibile, UniProt G7CGT2, E367L/L319I/V363F); assay: OtsA kinetic parameters, continuous colorimetric coupled assay (L319I, V363F, E367L); format: biochemical, Mycobacterium thermoresistibile; details: triple mutant
# T3 sequence (G7CGT2 1-486 L319I/V363F/E367L): T1 sequence (G7CGT2 1-486)
# [4] = target: T4, M. thermoresistibile OtsA V363F (Mycolicibacterium thermoresistibile, UniProt G7CGT2, V363F); assay: OtsA kinetic parameters, continuous colorimetric coupled assay (V363F); format: biochemical, Mycobacterium thermoresistibile
# T4 sequence (G7CGT2 1-486 V363F): T1 sequence (G7CGT2 1-486)
# MtrOtsA [5] = target: T1, MtrOtsA; details: ITC, 25°C, 60 μM OtsA, 1 mM ligand
# [6] = target: M. thermoresistibile OtsA wild type (Mycolicibacterium thermoresistibile, UniProt G7CGT2); assay: OtsA kinetic parameters, continuous colorimetric coupled assay (wild type); format: biochemical, Mycobacterium thermoresistibile
Compound,Kd (MtrOtsA [1]) [µM],fold increase in Km^app compared to the wild type [2] [fold],fold increase in Km^app compared to the wild type [3] [fold],fold increase in Km^app over the wild type [4] [fold],heat of binding (MtrOtsA [5]),"turnover, fold lower than ADP-glucose [6] [fold]"
Nc1ncnc2c1ncn2[C@@H]1O[C@H](COP(=O)(O)OP(=O)(O)O[C@H]2O[C@H](CO)[C@@H](O)[C@H](O)[C@H]2O)[C@@H](O)[C@H]1O [ADP-glucose],27.2 ± 2.66,~3,~5,~2.5,–,–
Nc1nc2c(ncn2[C@@H]2O[C@H](COP(=O)(O)OP(=O)(O)O[C@H]3O[C@H](CO)[C@@H](O)[C@H](O)[C@H]3O)[C@@H](O)[C@H]2O)c(=O)[nH]1 [GDP-glucose],–,–,–,~2.5,no observable heat of binding,5
